Several values for one entry are separate records, joined by “and”; a condition that tells them apart may be missing. Identical values can stand only once. Inconclusive results and toxic doses are left out. The calls were made as follows: active = survival T/C of 150% or more; inactive = T/C below 125% in these data.
Test system: P388 leukemia ip, CD2F1 mice, survival T/C
Experiment: NCI In Vivo Anticancer Drug Screen. Data for tumor model P388 Leukemia (intraperitoneal) in CD2F1 (CDF1) mice
Details: endpoint: median survival time, higher = longer survival
Procedure, shortened: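 Mice carrying the transplanted tumor received test compound or vehicle. Survival was recorded in each group, and the value is the treated-group measurement divided by that of the vehicle-treated control group.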

[1] = dose: 50.0 mg/kg/injection, schedule: Q01DX009 (ip), vehicle: Klucel (hydroxypropylcellulose) (HPC)
[2] = dose: 200.0 mg/kg/injection, schedule: Q01DX009 (ip), vehicle: Klucel (hydroxypropylcellulose) (HPC)
[3] = dose: 50.0 mg/kg/injection, schedule: Q01DX005 (ip), vehicle: Klucel (hydroxypropylcellulose) (HPC)
[4] = dose: 100.0 mg/kg/injection, schedule: Q01DX005 (ip), vehicle: Klucel (hydroxypropylcellulose) (HPC)
[5] = dose: 200.0 mg/kg/injection, schedule: Q01DX005 (ip), vehicle: Klucel (hydroxypropylcellulose) (HPC)
[6] = dose: 60.0 mg/kg/injection, schedule: Q01DX005 (ip), vehicle: saline with Tween-80
[7] = dose: 120.0 mg/kg/injection, schedule: Q01DX005 (ip), vehicle: saline with Tween-80
[8] = dose: 240.0 mg/kg/injection, schedule: Q01DX005 (ip), vehicle: saline with Tween-80

Measured: T/C

CCOC(=O)N/N=C/c1ccc(N(C)CCC#N)cc1
inactive: dose: 6.25 mg/kg/injection, schedule: Q01DX009 (ip), vehicle: Klucel (hydroxypropylcellulose) (HPC) 90 % of control | dose: 12.5 mg/kg/injection, schedule: Q01DX009 (ip), vehicle: Klucel (hydroxypropylcellulose) (HPC) 100 % of control | dose: 25.0 mg/kg/injection, schedule: Q01DX009 (ip), vehicle: Klucel (hydroxypropylcellulose) (HPC) 97 % of control | [1] 88 % of control and 89 % of control | [2] 90 % of control

O=C1NN(C(=O)c2ccccc2)C(c2ccccc2[N+](=O)[O-])c2c1c1ccccc1n2C(=O)c1ccccc1 (stereo not given)
inactive: [3] 97 % of control | [4] 95 % of control | [5] 88 % of control

CCOc1ccc(-n2c(=O)c(N=Nc3ccccc3C)c(O)n(-c3ccc(Br)cc3)c2=S)cc1
inactive: dose: 100.0 mg/kg/injection, schedule: Q01DX001 (ip), vehicle: saline with Tween-80 98 % of control | dose: 200.0 mg/kg/injection, schedule: Q01DX001 (ip), vehicle: saline with Tween-80 92 % of control | dose: 400.0 mg/kg/injection, schedule: Q01DX001 (ip), vehicle: saline with Tween-80 105 % of control

O=C1C=C(C/C=C/c2ccccc2)C(C/C=C/c2ccccc2)C=C1O (stereo not given)
inactive: dose: 0.32 mg/kg/injection, schedule: Q01DX009 (ip), vehicle: saline with Tween-80 102 % of control | dose: 0.63 mg/kg/injection, schedule: Q01DX009 (ip), vehicle: saline with Tween-80 107 % of control | dose: 1.25 mg/kg/injection, schedule: Q01DX009 (ip), vehicle: saline with Tween-80 103 % of control | dose: 2.5 mg/kg/injection, schedule: Q01DX009 (ip), vehicle: saline with Tween-80 102 % of control and 93 % of control | dose: 10.0 mg/kg/injection, schedule: Q01DX009 (ip), vehicle: saline with Tween-80 94 % of control

CCCCCCCC(=O)NN
inactive: dose: 12.5 mg/kg/injection, schedule: Q01DX009 (ip), vehicle: suspension in saline 96 % of control | dose: 25.0 mg/kg/injection, schedule: Q01DX009 (ip), vehicle: suspension in saline 96 % of control | dose: 50.0 mg/kg/injection, schedule: Q01DX009 (ip), vehicle: suspension in saline 97 % of control | dose: 100.0 mg/kg/injection, schedule: Q01DX009 (ip), vehicle: suspension in saline 96 % of control

c1ccc2c(c1)N=Nc1ccccc1OCCOCCOCCOCCO2
inactive: dose: 100.0 mg/kg/injection, schedule: Q04DX002 (ip), vehicle: saline with Tween-80 106 % of control | dose: 200.0 mg/kg/injection, schedule: Q04DX002 (ip), vehicle: saline with Tween-80 100 % of control | dose: 400.0 mg/kg/injection, schedule: Q04DX002 (ip), vehicle: saline with Tween-80 99 % of control

CCCOCn1cc(F)c(=O)n(COCCC)c1=O
inactive: dose: 5.62 mg/kg/injection, schedule: Q04DX002 (ip), vehicle: water 95 % of control | dose: 11.25 mg/kg/injection, schedule: Q04DX002 (ip), vehicle: water 93 % of control | dose: 22.5 mg/kg/injection, schedule: Q04DX002 (ip), vehicle: water 92 % of control | dose: 45.0 mg/kg/injection, schedule: Q04DX002 (ip), vehicle: water 92 % of control | dose: 90.0 mg/kg/injection, schedule: Q04DX002 (ip), vehicle: water 91 % of control | dose: 180.0 mg/kg/injection, schedule: Q04DX002 (ip), vehicle: water 95 % of control

S=c1nn[nH]n1-c1cccc2ccccc12
inactive: dose: 100.0 mg/kg/injection, schedule: Q04DX003 (ip), vehicle: saline sonified 90 % of control | dose: 200.0 mg/kg/injection, schedule: Q04DX003 (ip), vehicle: saline sonified 100 % of control | dose: 400.0 mg/kg/injection, schedule: Q04DX003 (ip), vehicle: saline sonified 100 % of control

CCN(CC)c1ccc2nc3c4ccccc4c(=NC(=O)c4ccccc4-c4c5ccc(N(CC)CC)cc5[o+]c5cc(N(CC)CC)ccc45)cc-3oc2c1
inactive: dose: 50.0 mg/kg/injection, schedule: Q01DX009 (ip), vehicle: saline 106 % of control | dose: 100.0 mg/kg/injection, schedule: Q01DX009 (ip), vehicle: saline 96 % of control

N#CC(C(=O)C(=O)Nc1cccc(C(F)(F)F)c1)c1ccc(Cl)cc1Cl (stereo not given)
inactive: [6] 94 % of control | [7] 91 % of control | [8] 92 % of control

CCOC(=O)c1csc(/C=C/c2cc(OC)c(OC)c(OC)c2)n1
inactive: [6] 105 % of control | [7] 100 % of control | [8] 92 % of control

COc1cc(NCCCCCCNC(C)C)c2ncccc2c1OC
inactive: dose: 1.56 mg/kg/injection, schedule: Q01DX005 (ip), vehicle: Klucel (hydroxypropylcellulose) (HPC) 99 % of control | dose: 3.12 mg/kg/injection, schedule: Q01DX005 (ip), vehicle: Klucel (hydroxypropylcellulose) (HPC) 105 % of control | dose: 6.25 mg/kg/injection, schedule: Q01DX005 (ip), vehicle: Klucel (hydroxypropylcellulose) (HPC) 105 % of control | dose: 12.5 mg/kg/injection, schedule: Q01DX005 (ip), vehicle: Klucel (hydroxypropylcellulose) (HPC) 105 % of control

CCOC(=O)/C(C#N)=C(\O)CCCC(=O)O
inactive: [1] 88 % of control | dose: 100.0 mg/kg/injection, schedule: Q01DX009 (ip), vehicle: Klucel (hydroxypropylcellulose) (HPC) 91 % of control | [2] 90 % of control

O=C(O)CCOCCC(=O)O
inactive: dose: 50.0 mg/kg/injection, schedule: Q01DX005 (ip), vehicle: saline 97 % of control | dose: 100.0 mg/kg/injection, schedule: Q01DX005 (ip), vehicle: saline 97 % of control | dose: 200.0 mg/kg/injection, schedule: Q01DX005 (ip), vehicle: saline 97 % of control

CC1CCC2CCCCN2CO1 (stereo not given)
inactive: dose: 25.0 mg/kg/injection, schedule: Q01DX005 (ip), vehicle: Klucel (hydroxypropylcellulose) (HPC) 105 % of control | [3] 101 % of control and 122 % of control and 96 % of control | [4] 101 % of control and 109 % of control and 112 % of control | [5] 104 % of control and 114 % of control and 118 % of control

OCCN1CCN(CC/C=C2\c3ccccc3COc3ccc(Cl)cc32)CC1
inactive: dose: 6.25 mg/kg/injection, schedule: Q04DX003 (ip), vehicle: saline 100 % of control | dose: 12.5 mg/kg/injection, schedule: Q04DX003 (ip), vehicle: saline 114 % of control and 117 % of control | dose: 25.0 mg/kg/injection, schedule: Q04DX003 (ip), vehicle: saline 110 % of control | dose: 50.0 mg/kg/injection, schedule: Q04DX003 (ip), vehicle: saline 110 % of control | dose: 100.0 mg/kg/injection, schedule: Q04DX003 (ip), vehicle: saline 97 % of control

CNC(=O)OCc1nnn(-c2ccccc2)c1COC(=O)NC
inactive: dose: 12.5 mg/kg/injection, schedule: Q01DX005 (ip), vehicle: distilled water + Tween-80 98 % of control | dose: 25.0 mg/kg/injection, schedule: Q01DX005 (ip), vehicle: distilled water + Tween-80 98 % of control | dose: 50.0 mg/kg/injection, schedule: Q01DX005 (ip), vehicle: distilled water + Tween-80 96 % of control | dose: 100.0 mg/kg/injection, schedule: Q01DX005 (ip), vehicle: distilled water + Tween-80 91 % of control | dose: 200.0 mg/kg/injection, schedule: Q01DX005 (ip), vehicle: distilled water + Tween-80 88 % of control

COc1ccc(C2OC3=C(Nc4ccc(Cl)cc4N3)C2=O)c(OC)c1 (stereo not given)
inactive: dose: 0.94 mg/kg/injection, schedule: Q01DX005 (ip), vehicle: Klucel (hydroxypropylcellulose) (HPC) 99 % of control | dose: 1.88 mg/kg/injection, schedule: Q01DX005 (ip), vehicle: Klucel (hydroxypropylcellulose) (HPC) 91 % of control | dose: 3.75 mg/kg/injection, schedule: Q01DX005 (ip), vehicle: Klucel (hydroxypropylcellulose) (HPC) 95 % of control | dose: 15.0 mg/kg/injection, schedule: Q01DX005 (ip), vehicle: Klucel (hydroxypropylcellulose) (HPC) 91 % of control | dose: 30.0 mg/kg/injection, schedule: Q01DX005 (ip), vehicle: Klucel (hydroxypropylcellulose) (HPC) 92 % of control | dose: 120.0 mg/kg/injection, schedule: Q01DX005 (ip), vehicle: Klucel (hydroxypropylcellulose) (HPC) 90 % of control and 93 % of control

— PubChem BioAssay AID330 (DTP/NCI, 2004)
